Results reported in patent US6472157B2, “Methods for detection of promoter polymorphism in a UGT gene promoter” (Arch Development Corporation, priority 1999, dated 2002).
Entries after “also recorded” stand apart in the source; their conditions may differ.

How the values were obtained:
UGT [1] = assay: PNP glucuronidation in human liver microsomes; assay type: in vitro ADME; conditions: PNP 360 μM, 10 minutes
Experimental: The formation of glucuronidated PNP was quantified by the following method. […] The reaction was stopped by the addition of 2.8 ml of 0.2 M glycine-NaOH buffer (pH 10.4). Samples were centrifuged at 2,500 rpm for 30 minutes, and UGT activity in the supernatant was analyzed colorimetrically in a spectrophotometer by measuring the disappearance of the substrate at a wavelength of 400 nm.

cytochrome P450 enzymes = assay: 7-ethoxycoumarin O-deethylation in human liver samples; assay type: in vitro ADME; conditions: liver samples used in the genotype study
Excerpt: To evaluate the functional viability of microsomal drug-metabolizing enzymes in the liver samples used in this study, the livers were screened for 7-ethoxycoumarin O-deethylation, as 7-ethoxycoumarin is oxidized to umbelliferone by multiple cytochrome P450 enzymes. The method used is described by Evans & Relling, J. Chromatogr., 578:141-145 (1992).

UGT [2] = assay: AZT glucuronidation assay in human liver microsomes (control); assay type: in vitro ADME; conditions: microsomes from normal humans and CN-1 patients; AZT 5 mM, 1 hour
Experimental: (§1) To ensure the viability and functional enzymatic activity of the microsomal preparations, the UGT activity toward another substrate, AZT (3′-azido-3′-deoxythymidine) was investigated as a control. Liver microsomes from normal humans, CN-1 patients, normal rats, and Gunn rats were prepared as described above. Investigations were performed in pooled microsomes from normal rats, normal humans and Gunn rats, while microsomes from CN-1 patients were used individually.
(§2) Microsomes were preincubated with oleolyl lysophosphatidylcholine (OLPC) (0.8% wt/wt. OLPC/microsomal protein) at 4° C. for 20 minutes. The final reaction mixture contained 1 mg/ml preincubated microsomes, AZT (5 mM), MgCl2 (10 mM), 0.2 M Tris-HCl buffer (pH 7.3), and UDPGA (10 mM) in a final volume of 300 μl. After an incubation period of 1 hour at 37° C., the reaction was stopped with the addition of 30 μl of HCl. Proteins were removed after centrifugation at 10,500 g for 5 minutes and 30 μl aliquots of the supernatant were subjected to HPLC analysis and the metabolites were detected in an ultraviolet detector at a wavelength of 265 nm. The mobile phase consisted of a 15:85 mixture of acetonitrile/ammonium phosphate buffer (0.1% vol/vol phosphoric acid, adjusted to pH 2.7 with ammonium hydroxide) used at a flow rate of 1 ml/min. […]

UGT [3] = assay: AZT glucuronidation assay in rat liver microsomes (control); assay type: in vitro ADME; conditions: microsomes from normal rats and Gunn rats; AZT 5 mM, 1 hour
Experimental: as §1, §2

UGT enzymes [4] = assay: SN-38 glucuronidation assay in human liver microsomes; assay type: in vitro ADME; conditions: for mean SN-38 glucuronidation rate (peak area of SN-38 glucuronide ÷ peak area CPT) {SE}: African Americans liver microsomes
Experimental: (§3) To investigate which UGT enzymes are responsible for SN-38 glucuronidation, the in vitro metabolism of SN-38 was measured using normal human and rat liver microsomes, as well as microsomes from Gunn rats, Gunn, C. H., J. Hered., 29:137-139 (1938), and patients with Crigler-Najjar type I (CN-1) syndrome. Liver microsomes were prepared from normal humans, CN-1 patients, normal rats, and Gunn rats and assayed for SN-38 glucuronidation. Microsomes from human liver samples medically unsuitable for liver transplantation were acquired under the auspices of the Washington Regional Transplant Consortium. In addition, microsomes were prepared by differential centrifugation methods. Purba, H. S., et al., Br. J. Clin. Pharmaocol. 23:447-453, using human liver samples obtained with the approval of the Institutional Review Boards of institutions involved through the Liver Tissue Procurement and Distribution System. Investigations were performed with pooled microsomes from normal rats, normal humans and Gunn rats, while microsomes from CN-1 patients were used individually.
Microsomes (1 mg/ml) were incubated with SN-38 (5 μM), MgCl2 (10 mM), and UDPGA (5 mM) in a 0.1 M Tris-HCl buffer medium (pH 7.4) for 30 minutes at 37° C., in a final volume of 200 μl. After stopping the reaction with 400 μl methanol, the incubation mix was centrifuged at 2,500 rpm for 30 minutes at 4° C. The supernatant was evaporated to dryness under nitrogen and in preparation of analysis by high pressure liquid chromatography (HPLC), the supernatant was reconstituted with 250 μl of a mobile phase consisting of 35% acetonitrile and 65% 0.1 M KH2PO4 containing 3 mM sodium heptane sulphonate (pH 4.0), used at a flow rate of 0.8 ml/min. A C18μ Bondapak column (10 μm, 3.9×300 mm) was used with fluorescence detection at the following wavelengths: 355 nm and 515 nm. 100 μl aliquots of the reconstituted supernatant were injected into an HPLC assay system. CPT was used as the internal standard. […] Retention times were approximately 3.5, 9, and 10 minutes, respectively. The peaks for each of these compounds were confirmed using standards of SN-38G, SN-38, and CPT.
Microsomes (1 mg/ml) were obtained from human liver tissue samples and were incubated with SN-38 (5 μM), MgCl2 (10 mM), and UDPGA (5 mM) in a 0.1 M Tris-HCl buffer medium (pH 7.4) for 30 minutes at 37° C., in a final volume of 200 μl. SN-38, SN-38G and the internal standard, CPT, were separated using high performance liquid chromatography (HPLC) coupled to fluorescence detection (ex=355 nm and em=515 nm). SN-38 reaction rates were linear for incubation times up to at least 1.5 hours and for final protein concentrations of up to 2 mg/ml. The results of this analysis, shown in Table 2 below, also include the liver samples of Caucasian origin from the first study. […]

UGT enzymes [5] = assay: SN-38 glucuronidation assay in Gunn rat liver microsomes; assay type: in vitro ADME; conditions: liver microsomes from Gunn rats
Experimental: as §3
Microsomes (1 mg/ml) were incubated with SN-38 (5 μM), MgCl2 (10 mM), and UDPGA (5 mM) in a 0.1 M Tris-HCl buffer medium (pH 7.4) for 30 minutes at 37° C., in a final volume of 200 μl. […] A C18μ Bondapak column (10 μm, 3.9×300 mm) was used with fluorescence detection at the following wavelengths: 355 nm and 515 nm. […]

human UGT1A1 = target: T1, human UGT1A1 (Homo sapiens, UniProt P22309); assay: SN-38 glucuronidation by cDNA-expressed UGT1A1 in HK293 cells; conditions: HK293 cells expressing UGT1A1; increased with increasing protein concentrations
T1 sequence (P22309 26-533): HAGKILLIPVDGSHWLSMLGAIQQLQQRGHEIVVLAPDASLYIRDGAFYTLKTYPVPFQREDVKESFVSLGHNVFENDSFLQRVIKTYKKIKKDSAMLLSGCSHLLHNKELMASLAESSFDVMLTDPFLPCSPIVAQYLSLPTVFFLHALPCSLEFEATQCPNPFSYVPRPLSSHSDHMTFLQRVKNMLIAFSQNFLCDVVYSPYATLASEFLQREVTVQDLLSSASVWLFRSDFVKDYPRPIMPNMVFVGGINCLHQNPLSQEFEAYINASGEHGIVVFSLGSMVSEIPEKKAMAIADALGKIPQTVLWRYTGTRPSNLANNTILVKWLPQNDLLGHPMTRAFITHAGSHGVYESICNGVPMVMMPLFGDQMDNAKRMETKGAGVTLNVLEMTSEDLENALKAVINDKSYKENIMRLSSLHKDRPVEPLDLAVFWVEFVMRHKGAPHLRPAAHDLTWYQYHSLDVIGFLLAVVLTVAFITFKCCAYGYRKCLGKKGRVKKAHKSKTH
Excerpt: (§4) Cell lysates from HK293 cells expressing UGT1A1 (♦), UGT1A4 (□) and UGT2B7 enzymes (Δ), and membrane preparations of HK293 cells expressing UGT1A1 enzyme (●), were screened for SN-38 glucuronidating activity. HK293 cells (⋄) were used as a control. Each data point represents the mean of three separate determinations.
(§5) To determine which particular isozyme of UGT1 glucuronidates SN-38, HK293 cells transfected with and expressing cDNA encoding selected UGT1 isozymes and a member of the UGT2 family (UGT2B7) were screened for SN-38 glucuronidating activity. Culture media and conditions for stable expression of human UGT1A1, UGT1A4, and UGT2B7 have been described previously. Coffman, et al., Mol. Pharmacol., 47:1101-1105 (1995), Green, et al., Drug Metab. Dispos., 23:299-302 (1995); Coffman, et al., Drug Metab. Dispos., 25:1-4 (1997) all are incorporated herein by reference. Briefly, the XbaI/XhoI and BamHI-XhoI fragments of human UGT1A1, UGT1A4, and UGT2B7 were subcloned into the respective corresponding sites of the mammalian expression vectors pcDNA3, pREP9, and pcDNA3.1. HK293 cells were transfected with the vector-UGT isozyme using the calcium phosphate transfection method. Chen, et al., Biotechniques, 6:632-638 (1988). The cells were then assayed for glucuronidation activity as described above.

human UGT1A4 = target: T2, human UGT1A4 (Homo sapiens, UniProt P22310); assay: SN-38 glucuronidation by cDNA-expressed UGT1A4 in HK293 cells; conditions: HK293 cells expressing UGT1A4; up to a protein concentration of 2 mg/ml
T2 sequence (P22310 29-534): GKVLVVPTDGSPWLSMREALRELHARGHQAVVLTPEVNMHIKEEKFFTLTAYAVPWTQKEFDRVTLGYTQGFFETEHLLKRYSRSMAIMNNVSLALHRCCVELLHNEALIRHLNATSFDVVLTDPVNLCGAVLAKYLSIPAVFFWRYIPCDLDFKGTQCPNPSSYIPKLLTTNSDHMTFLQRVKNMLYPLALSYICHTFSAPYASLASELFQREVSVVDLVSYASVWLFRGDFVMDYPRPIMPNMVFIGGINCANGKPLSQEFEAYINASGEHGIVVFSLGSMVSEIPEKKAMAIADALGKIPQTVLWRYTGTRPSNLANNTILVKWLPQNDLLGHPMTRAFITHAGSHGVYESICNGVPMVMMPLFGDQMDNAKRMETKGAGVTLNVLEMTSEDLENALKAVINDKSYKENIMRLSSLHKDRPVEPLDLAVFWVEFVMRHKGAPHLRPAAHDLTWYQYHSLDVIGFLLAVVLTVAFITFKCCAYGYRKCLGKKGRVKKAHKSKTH
Excerpt: as §4, §5

human UGT2B7 = target: T3, human UGT2B7 (Homo sapiens, UniProt P16662); assay: SN-38 glucuronidation by cDNA-expressed UGT2B7 in HK293 cells; conditions: HK293 cells expressing UGT2B7; up to a protein concentration of 2 mg/ml
T3 sequence (P16662 24-529): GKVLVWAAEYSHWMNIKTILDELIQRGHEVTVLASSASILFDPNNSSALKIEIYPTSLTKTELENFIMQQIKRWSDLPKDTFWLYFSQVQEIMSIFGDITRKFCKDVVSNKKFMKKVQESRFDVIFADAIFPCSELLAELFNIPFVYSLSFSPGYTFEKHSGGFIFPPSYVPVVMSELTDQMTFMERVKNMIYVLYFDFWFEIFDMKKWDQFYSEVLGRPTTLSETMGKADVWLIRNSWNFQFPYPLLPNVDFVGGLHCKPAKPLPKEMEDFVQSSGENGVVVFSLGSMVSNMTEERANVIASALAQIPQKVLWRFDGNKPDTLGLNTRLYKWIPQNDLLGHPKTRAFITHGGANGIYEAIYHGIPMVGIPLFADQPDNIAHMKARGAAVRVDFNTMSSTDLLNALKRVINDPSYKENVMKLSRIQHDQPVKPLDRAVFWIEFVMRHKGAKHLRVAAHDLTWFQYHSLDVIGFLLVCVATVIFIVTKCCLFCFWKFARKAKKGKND
Excerpt: as §4, §5

[6] = relative to Irinotecan; cited from earlier work

## O=[N+]([O-])c1ccc(O)cc1 [PNP]
UGT [1]
  rates of PNP glucuronidation (mean±SEM): 20.39±2.4 nmol PNP glucuronidated/min/mg protein
  rates of PNP glucuronidation (range): 16.48-23.82 nmol PNP glucuronidated/min/mg protein

## CCOc1ccc2ccc(=O)oc2c1 [7-ethoxycoumarin]
Cytochrome P450 enzymes
  rates of umbelliferone formation (7-ethoxycoumarin O-deethylation): within the expected range

## Cc1cn([C@H]2C[C@H](N=[N+]=[N-])[C@@H](CO)O2)c(=O)[nH]c1=O [AZT, 3′-azido-3′-deoxythymidine]
UGT [2]
  in vitro formation of G-AZT: Intact in vitro formation of G-AZT
UGT [3]
  in vitro formation of G-AZT: Intact in vitro formation of G-AZT

## CCc1c2c(nc3ccc(O)cc13)-c1cc3c(c(=O)n1C2)COC(=O)[C@]3(O)CC [SN-38, 7-ethyl-10-hydroxycamptothecin]
UGT enzymes [4]; 25 normal human liver microsomes, SN-38 5 μM, 30 minutes, 37° C.
  rates of SN-38G formation among individuals (range): 0.5-26 pmol of SN-38G formed/min/mg microsomal protein
UGT enzymes [4]; UGT1A1 promoter genotype 5/7
  mean SN-38 glucuronidation rate (peak area of SN-38 glucuronide ÷ peak area CPT) {SE}: 0.39
UGT enzymes [4]; UGT1A1 promoter genotype 6/8
  mean SN-38 glucuronidation rate (peak area of SN-38 glucuronide ÷ peak area CPT) {SE}: 0.12
UGT enzymes [4]; liver microsomes from CN-1 patients
  in vitro SN-38 glucuronidating activity: no in vitro glucuronidation; also recorded: lack SN-38 glucuronidating activity
UGT enzymes [5]
  in vitro SN-38 glucuronidating activity: no in vitro glucuronidation; also recorded: lack SN-38 glucuronidating activity
Human UGT1A1
  SN-38G formation: measurable SN-38G formation
Human UGT1A4
  SN-38 glucuronidating activity: lack of SN-38 glucuronidating activity
Human UGT2B7
  SN-38 glucuronidating activity: lack of SN-38 glucuronidating activity
[6]
  higher antitumor activity than Irinotecan: 100-1,000 fold
